Measurements as given in patent US20240000872A1, “NOVEL BACTERIOPHAGE THAT LYSES ACINETOBACTER GENUS BACTERIA HAVING RESISTANCE TO ANTIBIOTICS” (priority 2020, published 2024).

Test system: Acinetobacter baumannii strains
Experiment: Antibiotic susceptibility test (CLSI disk diffusion test method, read per CLSI 2016); as to antibiotic susceptibility S/I/R: key: ‘S’ means susceptible; ‘I’ means intermediate; ‘R’ means resistant; as to susceptibility category (S/I/R): key: ‘S’ means susceptible; ‘I’ means intermediate; ‘R’ means resistant
Type: cell-based
Set-up: antibiotic susceptibility test value / susceptibility test value (number given before S/I/R) / antibiotic susceptibility value: unit not given here

ampicillin-sulbactam
antibiotic susceptibility value (host strain YMC16/01/R123): 32
susceptibility category (S/I/R) (host strain YMC16/01/R123): R
susceptibility test value (number given before S/I/R) (host strain YMC16/01/R123): 32
antibiotic susceptibility S/I/R (host strain YMC16/01/R198): S
antibiotic susceptibility value (host strain YMC16/01/R198): 8
susceptibility category (S/I/R) (host strain YMC16/01/R198): S
susceptibility test value (number given before S/I/R) (host strain YMC16/01/R198): 8
antibiotic susceptibility value (host strain YMC16/01/R353): 16
susceptibility category (S/I/R) (host strain YMC16/01/R353): I
susceptibility test value (number given before S/I/R) (host strain YMC16/01/R353): 16
antibiotic susceptibility S/I/R (host strain YMC16/01/R380): R
antibiotic susceptibility value (host strain YMC16/01/R380): 32
susceptibility category (S/I/R) (host strain YMC16/01/R380): R
susceptibility test value (number given before S/I/R) (host strain YMC16/01/R380): 32
antibiotic susceptibility S/I/R (host strain YMC16/01/R397): R
antibiotic susceptibility value (host strain YMC16/01/R397): 32
susceptibility category (S/I/R) (host strain YMC16/01/R397): R
susceptibility test value (number given before S/I/R) (host strain YMC16/01/R397): 32
antibiotic susceptibility value (host strain YMC16/01/R405): 16
susceptibility category (S/I/R) (host strain YMC16/01/R405): I
susceptibility test value (number given before S/I/R) (host strain YMC16/01/R405): 16
antibiotic susceptibility S/I/R (host strain YMC16/03/R4461): S
antibiotic susceptibility value (host strain YMC16/03/R4461): 4
susceptibility category (S/I/R) (host strain YMC16/03/R4461): S
susceptibility test value (number given before S/I/R) (host strain YMC16/03/R4461): 4
antibiotic susceptibility value (host strain YMC16/05/R2210): 16
susceptibility category (S/I/R) (host strain YMC16/05/R2210): I
susceptibility test value (number given before S/I/R) (host strain YMC16/05/R2210): 16
antibiotic susceptibility value (host strain YMC16/07/R2512): 16
susceptibility category (S/I/R) (host strain YMC16/07/R2512): I
susceptibility test value (number given before S/I/R) (host strain YMC16/07/R2512): 16
antibiotic susceptibility S/I/R (host strain YMC16/09/R2471): R
antibiotic susceptibility value (host strain YMC16/09/R2471): 32
susceptibility category (S/I/R) (host strain YMC16/09/R2471): R
susceptibility test value (number given before S/I/R) (host strain YMC16/09/R2471): 32
antibiotic susceptibility value (host strain YMC16/10/R2537): 16
susceptibility category (S/I/R) (host strain YMC16/10/R2537): I
susceptibility test value (number given before S/I/R) (host strain YMC16/10/R2537): 16
antibiotic susceptibility S/I/R (host strain YMC16/12/B11422): R
antibiotic susceptibility value (host strain YMC16/12/B11422): 32
susceptibility category (S/I/R) (host strain YMC16/12/B11422): R
susceptibility test value (number given before S/I/R) (host strain YMC16/12/B11422): 32
antibiotic susceptibility S/I/R (host strain YMC16/12/B11449): R
antibiotic susceptibility value (host strain YMC16/12/B11449): 32
susceptibility category (S/I/R) (host strain YMC16/12/B11449): R
susceptibility test value (number given before S/I/R) (host strain YMC16/12/B11449): 32
antibiotic susceptibility value (host strain YMC16/12/B13325): 16
susceptibility category (S/I/R) (host strain YMC16/12/B13325): I
susceptibility test value (number given before S/I/R) (host strain YMC16/12/B13325): 16
antibiotic susceptibility S/I/R (host strain YMC16/12/P503): R
antibiotic susceptibility value (host strain YMC16/12/P503): 32
susceptibility category (S/I/R) (host strain YMC16/12/P503): R
susceptibility test value (number given before S/I/R) (host strain YMC16/12/P503): 32
antibiotic susceptibility S/I/R (host strain YMC16/12/R4637): R
antibiotic susceptibility value (host strain YMC16/12/R4637): 32
susceptibility category (S/I/R) (host strain YMC16/12/R4637): R
susceptibility test value (number given before S/I/R) (host strain YMC16/12/R4637): 32
antibiotic susceptibility S/I/R (host strain YMC17/01/B8053): S
antibiotic susceptibility value (host strain YMC17/01/B8053): 8
susceptibility category (S/I/R) (host strain YMC17/01/B8053): S
susceptibility test value (number given before S/I/R) (host strain YMC17/01/B8053): 8
antibiotic susceptibility value (host strain YMC17/01/B10087): 16
susceptibility category (S/I/R) (host strain YMC17/01/B10087): I
susceptibility test value (number given before S/I/R) (host strain YMC17/01/B10087): 16
antibiotic susceptibility value (host strain YMC17/01/B12075): 16
susceptibility category (S/I/R) (host strain YMC17/01/B12075): I
susceptibility test value (number given before S/I/R) (host strain YMC17/01/B12075): 16
antibiotic susceptibility S/I/R (host strain YMC17/01/B13454): R
antibiotic susceptibility value (host strain YMC17/01/B13454): 32
susceptibility category (S/I/R) (host strain YMC17/01/B13454): R
susceptibility test value (number given before S/I/R) (host strain YMC17/01/B13454): 32
antibiotic susceptibility value (host strain YMC17/01/P518): 16
susceptibility category (S/I/R) (host strain YMC17/01/P518): I
susceptibility test value (number given before S/I/R) (host strain YMC17/01/P518): 16
antibiotic susceptibility S/I/R (host strain YMC17/01/R2812): R
antibiotic susceptibility value (host strain YMC17/01/R2812): 32
susceptibility category (S/I/R) (host strain YMC17/01/R2812): R
